Test results from USRE44962E1, “Genetically engineered plant cells and plants exhibiting resistance to glutamine synthetase inhibitors, DNA fragments and recombinants for use in the production of said cells and plants” (Bayer Cropscience N.V., priority 1986, dated 2014).

Tests used:
[1] = test system: glutamine synthetase (GS); details: cited from earlier work
PPT acetyl transferase = PPT acetyl transferase (Streptomyces hygroscopicus, UniProt P16426); type: biochemical, S. hygroscopicus ATCC 21 705; details: S. hygroscopicus derivates; S. lividans carrying pBG20 or pBG16
Sequence of PPT acetyl transferase (P16426 whole entry): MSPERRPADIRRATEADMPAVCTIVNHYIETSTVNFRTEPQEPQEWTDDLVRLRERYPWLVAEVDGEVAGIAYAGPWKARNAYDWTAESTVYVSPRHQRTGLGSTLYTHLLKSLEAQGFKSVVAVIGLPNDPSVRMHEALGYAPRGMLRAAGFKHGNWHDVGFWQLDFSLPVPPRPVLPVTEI

S. lividans = type: cell-based
E. coli W3110 = assay: Growth of E. coli W3110 on M9 medium containing Bialaphos; type: cell-based; details: for resistance of pBG93/W3110 to Bialaphos: M9 medium
Phytophtora infestans = type: in vivo; details: sfr potato plants sprayed at 8 l/ha once symptoms visible, read two weeks later

Row | Compound | inhibition of glutamine synthetase (GS) [1] | acetylation by the PPT acetyl transferase activity (PPT acetyl transferase) | growth of transformants containing pBG20 (S. lividans; S. lividans with pBG20, medium containing 500 μg/ml Bialaphos) | Bialaphos concentration at which S. lividans growth is normally inhibited (S. lividans; untransformed S. lividans, minimal medium) [µg/mL] | growth of W3110 host devoid of pBG93 (E. coli W3110; M9 medium containing 5 μg/ml Bialaphos) | resistance of pBG93/W3110 to Bialaphos (E. coli W3110; in the presence of IPTG (0.5 mM)) [μg/ml] | resistance of pBG93/W3110 to Bialaphos (E. coli W3110; without IPTG) [μg/ml] | growth of the fungus on treated plants (Phytophtora infestans)
1 | CP(=O)(O)CCC(N)C(=O)O (stereo not shown) [PPT, phosphinothricin] | inhibits | could acetylate |  |  |  |  |  | 
2 | CC(=O)NC(CCP(C)(=O)O)C(=O)O (stereo not shown) [N-acetyl PPT] | not an inhibitor |  |  |  |  |  |  | 
3 | CC(NC(=O)C(C)NC(=O)C(N)CCP(C)(=O)O)C(=O)O (stereo not shown) [Bialaphos] |  | does not acetylate | not noticeably inhibited | 1 | did not grow | 50 | 5 | stopped
